Measurements taken from US9186321B2 (SUDA LIMITED, priority 2011, dated 2015).
Where a name gives a salt, the structure may show the parent alone.

Assay: Overall tolerability in the relative bioavailability study
Format: in vivo, human
Conditions: doses of 10 mg, 20 mg, 30 mg and single oral dose of 25 mg (1×25 mg tablet); healthy adult subjects under fed conditions
Experimental: Assessments include evaluation of changes in orthostatic hypotension, oral irritation, vital sign assessments, 12-lead electrocardiogram (ECG), and clinical assessments.
After dosing, the following activities were completed: • Both objective and subjective oral irritation assessments were performed immediately after dosing and at one hour after dose administration. • A fast was maintained until at least four hours after dosing. During the study confinement period, fluid consumption resumed no sooner than one hour after dose administration. […] Day 2 • Blood sample collections were obtained as per the profile. • Supine and standing blood pressure and heart rate was measured at approximately 24 hours after each dose. • All subjects were evaluated for the presence of any adverse events prior to release from the study site. • Prior to release, subjects were evaluated to ensure it was safe for them to be released from the study site. • Subjects were released from the study site at approximately 24 hours after dose administration. […]

## CCCc1nn(C)c2c(=O)[nH]c(-c3cc(S(=O)(=O)N4CCN(C)CC4)ccc3OCC)nc12 [sildenafil citrate]
  tolerability: well tolerated
